Results: the NIST ThermoML archive (doi:10.1016/j.jct.2017.03.026)
Values joined by “and” are separate entries in the source; they are usually repeats but may differ in a detail not shown here. Equal values may be shown once.

Test: molar heat capacity at constant pressure
Settings: 101.33 kPa, Crystal, Small (less than 1 g) adiabatic calorimetry

O.O.O.O.O.O=S(=O)([O-])[O-].[Cu+2] [copper(II) sulfate pentahydrate]
Settings	molar heat capacity at constant pressure
101.73 K	117.59 J/K/mol
101.86 K	118.59 J/K/mol
102.08 K	117.97 J/K/mol
102.79 K	118.7 J/K/mol
102.91 K	119.62 J/K/mol
103.83 K	120.63 J/K/mol
103.84 K	119.78 J/K/mol
103.89 K	120.08 J/K/mol
103.96 K	120.8 J/K/mol
104.14 K	120.09 J/K/mol
104.36 K	121.29 J/K/mol
104.89 K	120.9 J/K/mol
105.01 K	121.85 J/K/mol
105.93 K	122.01 J/K/mol
106.06 K	122.97 J/K/mol
106.2 K	122.39 J/K/mol
106.46 K	123.36 J/K/mol
106.97 K	123.24 J/K/mol
106.98 K	123.14 J/K/mol
107.12 K	123.92 J/K/mol
107.46 K	124.56 J/K/mol
108.03 K	124.25 J/K/mol
108.17 K	125.23 J/K/mol
108.27 K	124.44 J/K/mol
109.08 K	125.36 J/K/mol
109.1 K	126.13 J/K/mol
109.23 K	126.17 J/K/mol
110 K	126.2 J/K/mol
110.06 K	126.42 J/K/mol
110.13 K	126.46 J/K/mol
110.29 K	127.26 J/K/mol
110.33 K	126.54 J/K/mol
110.57 K	127.78 J/K/mol
111.18 K	127.44 J/K/mol
111.37 K	128.56 J/K/mol
111.74 K	128.74 J/K/mol
112.23 K	128.52 J/K/mol
112.4 K	128.7 J/K/mol
112.43 K	129.57 J/K/mol
113.16 K	129.6 J/K/mol
113.29 K	129.54 J/K/mol
113.49 K	130.69 J/K/mol
113.69 K	130.98 J/K/mol
114.34 K	130.68 J/K/mol
114.38 K	131.41 J/K/mol
114.47 K	130.81 J/K/mol
114.56 K	131.62 J/K/mol
115.39 K	131.78 J/K/mol
115.62 K	132.81 J/K/mol
116.25 K	132.9 J/K/mol
116.44 K	132.81 J/K/mol
116.54 K	133.18 J/K/mol
116.68 K	133.94 J/K/mol
116.81 K	134.01 J/K/mol
117.02 K	134.2 J/K/mol
117.5 K	133.84 J/K/mol
117.75 K	134.93 J/K/mol
118.55 K	134.96 J/K/mol
118.62 K	135 J/K/mol
118.81 K	136.22 J/K/mol
119.36 K	135.88 J/K/mol
119.63 K	136.14 J/K/mol
119.67 K	137.03 J/K/mol
119.88 K	137.17 J/K/mol
119.93 K	137.32 J/K/mol
120 K	136.3 J/K/mol
120.69 K	136.94 J/K/mol and 137.14 J/K/mol
120.95 K	138.19 J/K/mol
121.74 K	138.15 J/K/mol
122.02 K	139.11 J/K/mol
122.32 K	139.58 J/K/mol
122.46 K	138.97 J/K/mol
122.8 K	139.17 J/K/mol and 139.26 J/K/mol
123.07 K	140.4 J/K/mol
123.09 K	140.26 J/K/mol
123.86 K	140.26 J/K/mol
124.16 K	141.38 J/K/mol
124.88 K	141.31 J/K/mol
124.91 K	141.44 J/K/mol
124.97 K	142.22 J/K/mol
125.23 K	142.7 J/K/mol
125.57 K	142.11 J/K/mol
125.97 K	142.63 J/K/mol
126.2 K	143.67 J/K/mol
126.3 K	143.66 J/K/mol
126.97 K	143.36 J/K/mol
127.03 K	143.46 J/K/mol
127.37 K	144.66 J/K/mol
127.62 K	145 J/K/mol
128.08 K	144.35 J/K/mol
128.47 K	145.88 J/K/mol
128.7 K	145.15 J/K/mol
129.05 K	145.44 J/K/mol
129.14 K	145.37 J/K/mol
129.38 K	146.91 J/K/mol
129.54 K	146.79 J/K/mol
130 K	146.3 J/K/mol
130.2 K	146.58 J/K/mol
130.3 K	147.58 J/K/mol
130.62 K	147.67 J/K/mol
131.13 K	147.52 J/K/mol
131.25 K	147.55 J/K/mol
131.69 K	149.05 J/K/mol
131.82 K	148.2 J/K/mol
132.31 K	148.61 J/K/mol
132.53 K	150.01 J/K/mol
132.77 K	150.08 J/K/mol
132.95 K	150.13 J/K/mol
133.22 K	149.57 J/K/mol
133.37 K	149.93 J/K/mol
133.85 K	151.35 J/K/mol
134.43 K	150.8 J/K/mol
134.92 K	152.13 J/K/mol
134.93 K	151.23 J/K/mol
135.3 K	151.53 J/K/mol
135.49 K	151.95 J/K/mol
135.59 K	152.75 J/K/mol
135.69 K	153.09 J/K/mol
136 K	153.04 J/K/mol
136.56 K	152.7 J/K/mol
137.07 K	154.23 J/K/mol
137.39 K	153.55 J/K/mol
137.61 K	153.75 J/K/mol
138.05 K	154.26 J/K/mol
138.14 K	155.44 J/K/mol
138.23 K	155.31 J/K/mol
138.67 K	154.9 J/K/mol
138.85 K	156.32 J/K/mol
139.22 K	156.25 J/K/mol
139.47 K	155.53 J/K/mol
139.72 K	155.9 J/K/mol
140 K	156 J/K/mol
140.3 K	157.18 J/K/mol
140.78 K	156.94 J/K/mol
140.87 K	157.92 J/K/mol
141.16 K	157.45 J/K/mol
141.37 K	158.29 J/K/mol
141.56 K	157.55 J/K/mol
141.83 K	157.84 J/K/mol
142.01 K	159.46 J/K/mol
142.45 K	159.47 J/K/mol
142.89 K	158.79 J/K/mol
143.51 K	160.83 J/K/mol
143.52 K	160.62 J/K/mol
143.64 K	159.6 J/K/mol
143.94 K	159.82 J/K/mol
144.28 K	160.35 J/K/mol
144.6 K	161.74 J/K/mol
144.99 K	160.85 J/K/mol
145.18 K	162.59 J/K/mol
145.7 K	162.72 J/K/mol
145.73 K	161.63 J/K/mol
146.04 K	161.99 J/K/mol
146.16 K	163.13 J/K/mol
146.78 K	163.89 J/K/mol
147.09 K	162.84 J/K/mol
147.4 K	163.32 J/K/mol
147.81 K	163.57 J/K/mol
